The values below come from PubChem BioAssay AID248 (DTP/NCI, 2004).

Molecules are shown by their SMILES. Inconclusive results and toxic doses are left out.

This test relates to L1210 leukemia ip in BDF1 mice, survival T/C. As to the kind of experiment: NCI In Vivo Anticancer Drug Screen. Data for tumor model L1210 Leukemia (intraperitoneal) in B6D2F1 (BDF1) mice. Conditions: endpoint: mean survival time, higher = longer survival. In a few lines:
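Transplanted-tumor mice were given test agent; controls received vehicle only. Survival readings from the two groups were divided (treated over control).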

[1] abbreviates: dose: 100.0 mg/kg/injection, schedule: Q04DX003 (ip), vehicle: Klucel (hydroxypropylcellulose) (HPC).
The mark [2] stands for this setting: dose: 200.0 mg/kg/injection, schedule: Q04DX003 (ip), vehicle: Klucel (hydroxypropylcellulose) (HPC).
The mark [3] stands for this setting: dose: 400.0 mg/kg/injection, schedule: Q04DX003 (ip), vehicle: Klucel (hydroxypropylcellulose) (HPC).
Setting [4] is: dose: 50.0 mg/kg/injection, schedule: Q01DX001 (ip), vehicle: saline.
The mark [5] stands for this setting: dose: 100.0 mg/kg/injection, schedule: Q01DX001 (ip), vehicle: saline.
Where [6] appears, read: dose: 200.0 mg/kg/injection, schedule: Q01DX001 (ip), vehicle: saline.
[7] abbreviates: dose: 400.0 mg/kg/injection, schedule: Q01DX001 (ip), vehicle: saline.
[8] abbreviates: dose: 100.0 mg/kg/injection, schedule: Q04DX003 (ip), vehicle: saline.
[9] abbreviates: dose: 200.0 mg/kg/injection, schedule: Q04DX003 (ip), vehicle: saline.
[10] abbreviates: dose: 100.0 mg/kg/injection, schedule: Q04DX003 (ip), vehicle: saline with Tween-80.
Setting [11] is: dose: 100.0 mg/kg/injection, schedule: Q01DX009 (ip), vehicle: Klucel (hydroxypropylcellulose) (HPC).
Setting [12] is: dose: 200.0 mg/kg/injection, schedule: Q01DX009 (ip), vehicle: Klucel (hydroxypropylcellulose) (HPC).
The mark [13] stands for this setting: dose: 100.0 mg/kg/injection, schedule: Q04DX002 (ip), vehicle: saline.

Regarding `NC(=O)c1c(Cl)cccc1Cl`, the T/C reads like this: under setting [1], 111 % of control; under setting [2], 101 % of control; under setting [3], 101 % of control.
As for `COCn1cnc2c(ccn2C2OC(CO)C(O)C2O)c1=O` (stereo unspecified), the T/C under setting [4] was 104 % of control, the T/C under setting [5] is 93 % of control, the T/C under setting [6] was 106 % of control and the T/C under setting [7] was 106 % of control.
Turning to `O=C(c1ccccc1)C1(c2ccccc2)SSC1(C(=O)c1ccccc1)c1ccccc1` (stereo unspecified), the T/C reads like this: under setting [8], 95 % of control; under setting [9], 92 % of control; (dose: 400.0 mg/kg/injection, schedule: Q04DX003 (ip), vehicle: saline) 97 % of control.
For `CCc1c(Cl)nc(N)nc1Cl`, the T/C is, setting by setting: (dose: 100.0 mg/kg/injection, schedule: Q01DX Z (ip), vehicle: methylcellulose (MC)) 95 % of control; (dose: 200.0 mg/kg/injection, schedule: Q01DX Z (ip), vehicle: methylcellulose (MC)) 89 % of control.
For the compound `CC1=NN(c2ccccc2)C(=O)C1N=Nc1ccc(S(=O)(=O)Nc2nccc(C)n2)cc1` (stereo unspecified), the T/C (dose: 100.0 mg/kg/injection, schedule: Q01DX001 (ip), vehicle: carboxymethylcellulose (CMC)) was 98 % of control; the T/C (dose: 200.0 mg/kg/injection, schedule: Q01DX001 (ip), vehicle: carboxymethylcellulose (CMC)) was 98 % of control; the T/C (dose: 400.0 mg/kg/injection, schedule: Q01DX001 (ip), vehicle: carboxymethylcellulose (CMC)) was 88 % of control.
On to `CCNCc1ccc(OC)cc1`, for which the T/C is 101 % of control (dose: 25.0 mg/kg/injection, schedule: Q01DX009 (ip), vehicle: saline); 93 % of control (dose: 50.0 mg/kg/injection, schedule: Q01DX009 (ip), vehicle: saline); 100 % of control (dose: 100.0 mg/kg/injection, schedule: Q01DX009 (ip), vehicle: saline); 120 % of control under setting [10].
With `CCCCCCCCCCCCCCC(=O)N/N=C/c1ccc([N+](=O)[O-])s1`, the T/C is 91 % of control (dose: 100.0 mg/kg/injection, schedule: Q01DX009 (ip), vehicle: saline with Tween-80); 88 % of control (dose: 200.0 mg/kg/injection, schedule: Q01DX009 (ip), vehicle: saline with Tween-80); 100 % of control (dose: 400.0 mg/kg/injection, schedule: Q01DX009 (ip), vehicle: saline with Tween-80).
In the case of `O=C(Nc1ccc(C2=NCCCN2)cc1)Nc1cccc(C(=O)Nc2ccc(C3=NCCCN3)cc2)c1`, the T/C was 101 % of control (dose: 1.25 mg/kg/injection, schedule: Q01DX Z (ip), vehicle: carboxymethylcellulose (CMC)); 106 % of control (dose: 2.5 mg/kg/injection, schedule: Q01DX Z (ip), vehicle: carboxymethylcellulose (CMC)); 109 % of control (dose: 5.0 mg/kg/injection, schedule: Q01DX Z (ip), vehicle: carboxymethylcellulose (CMC)); 112 % of control (dose: 7.5 mg/kg/injection, schedule: Q01DX Z (ip), vehicle: carboxymethylcellulose (CMC)); 162 % of control (dose: 10.0 mg/kg/injection, schedule: Q01DX Z (ip), vehicle: carboxymethylcellulose (CMC)); 171 % of control (dose: 15.0 mg/kg/injection, schedule: Q01DX Z (ip), vehicle: carboxymethylcellulose (CMC)). Further, the T/C is, setting by setting: (dose: 20.0 mg/kg/injection, schedule: Q01DX Z (ip), vehicle: carboxymethylcellulose (CMC)) 190 % of control; (dose: 30.0 mg/kg/injection, schedule: Q01DX Z (ip), vehicle: carboxymethylcellulose (CMC)) 118 % of control; (dose: 40.0 mg/kg/injection, schedule: Q01DX Z (ip), vehicle: carboxymethylcellulose (CMC)) 86 % of control; (dose: 62.0 mg/kg/injection, schedule: Q01DX Z (oral), vehicle: carboxymethylcellulose (CMC)) 102 % of control; (dose: 125.0 mg/kg/injection, schedule: Q01DX Z (oral), vehicle: carboxymethylcellulose (CMC)) 105 % of control; (dose: 250.0 mg/kg/injection, schedule: Q01DX Z (oral), vehicle: carboxymethylcellulose (CMC)) 102 % of control. In addition, the T/C (dose: 500.0 mg/kg/injection, schedule: Q01DX Z (oral), vehicle: carboxymethylcellulose (CMC)) was 107 % of control.
`O=S(=O)(NC/C=C/c1ccccc1)c1ccccc1`: the T/C by setting is: (dose: 100.0 mg/kg/injection, schedule: Q01DX001 (ip), vehicle: Klucel (hydroxypropylcellulose) (HPC)) 96 % of control; (dose: 200.0 mg/kg/injection, schedule: Q01DX001 (ip), vehicle: Klucel (hydroxypropylcellulose) (HPC)) 103 % of control; (dose: 400.0 mg/kg/injection, schedule: Q01DX001 (ip), vehicle: Klucel (hydroxypropylcellulose) (HPC)) 102 % of control.
With `CC(=O)Oc1c(C)cc(O)c2ccccc12`, the T/C runs as follows: (dose: 50.0 mg/kg/injection, schedule: Q01DX009 (ip), vehicle: Klucel (hydroxypropylcellulose) (HPC)) 96 % of control; under setting [11], 111 % of control; under setting [12], 100 % of control.
On to `Clc1cc[c]([Sn]([Cl])([c]2ccc(Cl)cc2)[c]2ccc(Cl)cc2)cc1`, for which the T/C runs as follows: (dose: 1.56 mg/kg/injection, schedule: Q01DX009 (ip), vehicle: saline) 98 % of control; (dose: 3.12 mg/kg/injection, schedule: Q01DX009 (ip), vehicle: saline) 106 % of control.
On to `CCCCCCCCCCC(=O)N1CCCCC1`, for which the T/C was 100 % of control under setting [13]; 96 % of control (dose: 200.0 mg/kg/injection, schedule: Q04DX002 (ip), vehicle: saline); 96 % of control (dose: 400.0 mg/kg/injection, schedule: Q04DX002 (ip), vehicle: saline).
As to `COCc1c(C)cc(C)cc1C`, the T/C runs as follows: under setting [4], 91 % of control; under setting [5], 107 % of control; under setting [6], 103 % of control; under setting [7], 113 % of control.
`CCCC(C)(C)N`: the T/C is 97 % of control (dose: 25.0 mg/kg/injection, schedule: Q04DX002 (ip), vehicle: saline); 90 % of control (dose: 50.0 mg/kg/injection, schedule: Q04DX002 (ip), vehicle: saline); 103 % of control under setting [13].
With `CN(O)CC(=O)O`, the T/C reads like this: under setting [5], 95 % of control; under setting [6], 98 % of control; under setting [7], 97 % of control.
As for `CC(C)(C)NCc1cc(C(C)(C)C)cc(-c2ccccc2)c1O`, the T/C under setting [5] was 100 % of control; the T/C under setting [8] was 97 % of control; the T/C under setting [6] is 101 % of control; the T/C under setting [9] is 90 % of control; the T/C under setting [7] was 99 % of control.
Turning to `O=C(N/N=C/c1ccccc1)c1cc([N+](=O)[O-])cc([N+](=O)[O-])c1`, the T/C runs as follows: under setting [1], 90 % of control; under setting [2], 108 % of control; under setting [3], 101 % of control.
On to `O=C1CSCc2c1ccc1ccccc21`, for which the T/C reads like this: under setting [10], 106 % of control; (dose: 200.0 mg/kg/injection, schedule: Q04DX003 (ip), vehicle: saline with Tween-80) 100 % of control; (dose: 400.0 mg/kg/injection, schedule: Q04DX003 (ip), vehicle: saline with Tween-80) 108 % of control.
`NCC(OCCCc1ccccc1)C(Cl)(Cl)Cl` (stereo unspecified): the T/C (dose: 12.5 mg/kg/injection, schedule: Q04DX003 (ip), vehicle: saline with Tween-80) was 105 % of control; the T/C (dose: 25.0 mg/kg/injection, schedule: Q01DX009 (ip), vehicle: saline with Tween-80) is 105 % of control; the T/C (dose: 25.0 mg/kg/injection, schedule: Q04DX003 (ip), vehicle: saline with Tween-80) is 105 % of control; the T/C (dose: 50.0 mg/kg/injection, schedule: Q01DX009 (ip), vehicle: saline with Tween-80) was 113 % of control; the T/C (dose: 50.0 mg/kg/injection, schedule: Q04DX003 (ip), vehicle: saline with Tween-80) was 100 % of control.
Regarding `CC(=O)Oc1c(-c2ccccc2)cc([N+](=O)[O-])cc1[N+](=O)[O-]`, the T/C by setting is: (dose: 50.0 mg/kg/injection, schedule: Q04DX002 (ip), vehicle: Klucel (hydroxypropylcellulose) (HPC)) 97 % of control; (dose: 100.0 mg/kg/injection, schedule: Q04DX002 (ip), vehicle: Klucel (hydroxypropylcellulose) (HPC)) 103 % of control; (dose: 200.0 mg/kg/injection, schedule: Q04DX002 (ip), vehicle: Klucel (hydroxypropylcellulose) (HPC)) 94 % of control.
In the case of `Cc1[nH]c(=O)[nH]c(=O)c1C`, the T/C under setting [11] is 106 % of control; the T/C under setting [1] is 102 % of control; the T/C under setting [12] was 103 % of control; the T/C under setting [2] is 98 % of control; the T/C (dose: 400.0 mg/kg/injection, schedule: Q01DX009 (ip), vehicle: Klucel (hydroxypropylcellulose) (HPC)) is 93 % of control; the T/C under setting [3] was 91 % of control.
